Laboratory results from patent publication US7101878B1 (Agouron Pharmaceuticals, Inc., priority 1998, dated 2006).

Molecular target: T1, mouse GnRH receptor (Mus musculus, UniProt Q01776)
T1 construct: expressed in transfected cells; host or cells: 293 cells
T1 sequence (Q01776 1-327): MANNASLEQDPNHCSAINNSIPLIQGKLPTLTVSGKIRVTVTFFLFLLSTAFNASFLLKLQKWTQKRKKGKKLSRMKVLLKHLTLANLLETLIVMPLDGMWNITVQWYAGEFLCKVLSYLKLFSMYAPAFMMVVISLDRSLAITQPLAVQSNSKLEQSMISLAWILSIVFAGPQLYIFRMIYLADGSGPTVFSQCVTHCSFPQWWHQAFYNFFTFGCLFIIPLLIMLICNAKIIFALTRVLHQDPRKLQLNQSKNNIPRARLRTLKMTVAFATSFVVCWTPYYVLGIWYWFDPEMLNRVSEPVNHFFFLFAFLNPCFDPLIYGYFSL
Test: Radioligand binding, 125I-GnRH-A, 293 cells expressing mouse GnRH receptors
Conditions: 10 uM; read-out: % Inhib. @ 10 uM mGnRH
Protocol: All compounds were diluted in 1% DMSO (final assay concentration) in binding assay buffer. […] Reactions were terminated by rapid filtration onto 96-well Packard GF/C filters soaked in 0.1% polyethyleneimine. Filters were washed three times with PBS buffer, dried and counted on a Packard Topcount by liquid scintillation counting.
Assay conditions were identical for assessing compound activities at other species. […] IC50 values for control peptides and test compounds were calculated utilizing GraphPad Prism™ software.
The reaction mixture was vortexed and incubated for 1 min at room temperature. After one min, the mixture was vortexed and allowed to incubate for an additional minute. 2 ml of 0.5 M acetic acid/1% BSA was added to the reaction tube and the mixture was added to a C18 Sep-Pak cartridge. The cartridge was washed with subsequent washes of 5 ml H2O and 5 ml 0.5M acetic acid and then eluted with 5×1 ml of 60% CH3CN/40% 0.5M acetic acid. The eluate was diluted with 3× volume of HPLC buffer A (0.1% TFA in H2O) and loaded onto a C18 column. […] The radioactive fractions (750 ed/fraction) are collected into clean polypropylene tubes containing 100 μl of 10% BSA. Fractions were assessed for biological activity by radioligand binding.

Row | SMILES | inhibition at 10 µM [%]
1 | Cc1cc2c(cc1Cc1ccc(C(=O)N3CCCCC3CO)o1)C(C)(C)CCC2(C)C (stereo not shown) | 84
2 | Cc1cc2c(cc1Cc1ccc(C(=O)N(Cc3ccc(C(C)C)cc3)C3CCN(Cc4ccccc4)C3)o1)C(C)(C)CCC2(C)C (stereo not shown) [drawing 1564] | 48
3 | CC(=O)NC1CCN(C(=O)c2ccc(Cc3cc4c(cc3C)C(C)(C)CCC4(C)C)o2)C1 (stereo not shown) | 63
4 | Cc1cc2c(cc1Cc1ccc(C(=O)N3CCC[C@H]3C(N)=O)o1)C(C)(C)CCC2(C)C | 74
5 | C=C(C)CNC(=O)c1ccc(Cc2cc3c(cc2C)C(C)(C)CCC3(C)C)o1 [drawing 1573] | 93
6 | CCCCN(CCCC)CCCNC(=O)c1ccc(Cc2cc3c(cc2C)C(C)(C)CCC3(C)C)o1 [drawing 1242] | 103
7 | Cc1cc2c(cc1Cc1ccc(C(=O)N3CCC(c4cccc(C(F)(F)F)c4)C(O)C3)o1)C(C)(C)CCC2(C)C (stereo not shown) | 35
8 | CCN1CC(N(CCC(C)CCCC(C)(C)O)C(=O)c2ccc(Cc3cc4c(cc3C)C(C)(C)CCC4(C)C)o2)CN1CC (stereo not shown) [drawing 1567] | 104
9 | Cc1cc2c(cc1Cc1ccc(C(=O)N(C)Cc3cccc4ccccc34)o1)C(C)(C)CCC2(C)C | 51
10 | Cc1cc2c(cc1Cc1ccc(C(=O)N(Cc3ccco3)C3CCN(Cc4ccccc4)C3)o1)C(C)(C)CCC2(C)C (stereo not shown) [drawing 1559] | 94
11 | Cc1cc2c(cc1Cc1ccc(C(=O)N3CCN(CC(=O)NC(C)C)CC3)o1)C(C)(C)CCC2(C)C | 63
12 | CCCC(CO)NC(=O)c1ccc(Cc2cc3c(cc2C)C(C)(C)CCC3(C)C)o1 (stereo not shown) [drawing 1547] | 99
13 | Cc1cc2c(cc1Cc1ccc(C(=O)N3CCC(O)(Cc4ccccc4)CC3)o1)C(C)(C)CCC2(C)C | 67
14 | COc1cccc(N2CCN(C(=O)c3ccc(Cc4cc5c(cc4C)C(C)(C)CCC5(C)C)o3)CC2)c1 [drawing 1497] | 67
15 | CCOC(=O)CC(C)(NC(N)=O)NC(=O)c1ccc(Cc2cc3c(cc2C)C(C)(C)CCC3(C)C)o1 (stereo not shown) | 25
16 | CCCCN(C(=O)c1ccc(Cc2cc3c(cc2C)C(C)(C)CCC3(C)C)o1)C(C)c1ccccc1 (stereo not shown) [drawing 1275] | 65
17 | Cc1cc2c(cc1Cc1ccc(C(=O)NC(C)(C)CO)o1)C(C)(C)CCC2(C)C [drawing 1585] | 90
18 | Cc1cc2c(cc1Cc1ccc(C(=O)NCCO)o1)C(C)(C)CCC2(C)C [drawing 1527] | 53
19 | Cc1cc2c(cc1Cc1ccc(C(=O)NCCSCCO)o1)C(C)(C)CCC2(C)C [drawing 1498] | 101
20 | CCCN(C(=O)c1ccc(Cc2cc3c(cc2C)C(C)(C)CCC3(C)C)o1)C(C)CC (stereo not shown) | 94
21 | Cc1cc2c(cc1Cc1ccc(C(=O)N3CCN(C(=O)OC(C)(C)C)CC3)o1)C(C)(C)CCC2(C)C | 90
22 | COc1cc(OC)cc(N2CCN(C(=O)c3ccc(Cc4cc5c(cc4C)C(C)(C)CCC5(C)C)o3)CC2)c1 [drawing 1576] | 65
23 | Cc1cc2c(cc1Cc1ccc(C(=O)NCCCO)o1)C(C)(C)CCC2(C)C [drawing 1417] | 96
24 | Cc1cc2c(cc1Cc1ccc(C(=O)N3CCC[C@@H]3C(=O)NC(c3ccccc3)c3ccccc3)o1)C(C)(C)CCC2(C)C | 58
25 | Cc1cc2c(cc1Cc1ccc(C(=O)N(Cc3ccccc3)C(C)C)o1)C(C)(C)CCC2(C)C [drawing 1541] | 84
26 | Cc1cc2c(cc1Cc1ccc(C(=O)NCCc3ccc(OCc4ccccc4)c(OCc4ccccc4)c3)o1)C(C)(C)CCC2(C)C | 20

Same assay, conditions: 1 h, substrate remaining; 10 uM compound; closer to zero = closer to 100% inhibition; read-out: S%R 10 uM mGnRHR

Row | SMILES | remaining activity at 10 µM [%]
27 | Cc1cc2c(cc1Cc1ccc(C(=O)NCCc3ccc(N)cc3)o1)C(C)(C)CCC2(C)C [Compound 503] | -3
28 | Cc1cc2c(cc1Cc1ccc(C(=O)NCC3CCN(c4nccc(NCC5CCCO5)n4)CC3)o1)C(C)(C)CCC2(C)C (stereo not shown) [Compound 491] | 9
29 | CCCOCCNC(=O)c1ccc(Cc2cc3c(cc2C)C(C)(C)CCC3(C)C)o1 [Compound 669] | -3
30 | Cc1cc2c(cc1Cc1ccc(C(=O)NCc3cccc4c3OC3C=CC=CC43)o1)C(C)(C)CCC2(C)C (stereo not shown) [Compound 518] | 56
31 | Cc1cc2c(cc1Cc1ccc(C(=O)N3CCC(C)CC3)o1)C(C)(C)CCC2(C)C [Compound 605] | 19
32 | Cc1cc2c(cc1Cc1ccc(C(=O)NC(CO)CC3CCCCC3)o1)C(C)(C)CCC2(C)C (stereo not shown) [Compound 558] | 24
33 | Cc1cc2c(cc1Cc1ccc(C(=O)NC(C)CO)o1)C(C)(C)CCC2(C)C (stereo not shown) [Compound 685] | 19
34 | Cc1cc2c(cc1Cc1ccc(C(=O)N(CCN(C)C)Cc3ccccc3[N+](=O)[O-])o1)C(C)(C)CCC2(C)C [Compound 590] | -2
35 | COc1ccc(OC)c(CCNC(=O)c2ccc(Cc3cc4c(cc3C)C(C)(C)CCC4(C)C)o2)c1 [Compound 508] | 7
36 | Cc1cc2c(cc1Cc1ccc(C(=O)NCCC3=CCCCC3)o1)C(C)(C)CCC2(C)C [Compound 594] | 16
37 | Cc1cc2c(cc1Cc1ccc(C(=O)NCCc3cccs3)o1)C(C)(C)CCC2(C)C [Compound 471] | -4
38 | Cc1cc2c(cc1Cc1ccc(C(=O)N3CCC(NC(=O)C(F)(F)F)C3)o1)C(C)(C)CCC2(C)C (stereo not shown) [Compound 661] | 41
39 | Cc1cc2c(cc1Cc1ccc(C(=O)N3CCC(C(=O)c4ccccc4)CC3)o1)C(C)(C)CCC2(C)C [Compound 542] | 42
40 | Cc1cc2c(cc1Cc1ccc(C(=O)NCCCO)o1)C(C)(C)CCC2(C)C [Compound 531] | 4
41 | Cc1cc2c(cc1Cc1ccc(C(=O)NC(C)(C)CC(C)(C)C)o1)C(C)(C)CCC2(C)C [Compound 654] | 34
42 | Cc1cc2c(cc1Cc1ccc(C(=O)N3CCC(N4CCCC4)CC3)o1)C(C)(C)CCC2(C)C [Compound 588] | 4
43 | Cc1cc2c(cc1Cc1ccc(C(=O)NCCN3CCCCC3)o1)C(C)(C)CCC2(C)C [Compound 488] | -3
44 | Cc1cc2c(cc1Cc1ccc(C(=O)N(Cc3ccccc3)[C@@H](C)c3ccccc3)o1)C(C)(C)CCC2(C)C [Compound 637] | 55
45 | COc1cccc(CCNC(=O)c2ccc(Cc3cc4c(cc3C)C(C)(C)CCC4(C)C)o2)c1 [Compound 495] | 4
46 | Cc1cc2c(cc1Cc1ccc(C(=O)N(Cc3ccccc3)Cc3ccc(Cl)c(Cl)c3)o1)C(C)(C)CCC2(C)C [Compound 696] | 21
47 | Cc1cc2c(cc1Cc1ccc(C(=O)N3CCC4(C)CC(C)(C)CC45CC35)o1)C(C)(C)CCC2(C)C (stereo not shown) [Compound 634] | 1
48 | Cc1cc2c(cc1Cc1ccc(C(=O)NCc3ccc4c(c3)OCO4)o1)C(C)(C)CCC2(C)C [Compound 484] | -1
49 | CCOC(=O)N1CCN(C(=O)c2ccc(Cc3cc4c(cc3C)C(C)(C)CCC4(C)C)o2)CC1 [Compound 628] | 35
50 | Cc1cc2c(cc1Cc1ccc(C(=O)NCCN3CCCC3)o1)C(C)(C)CCC2(C)C [Compound 515] | 11
51 | Cc1cc2c(cc1Cc1ccc(C(=O)NCCCN(C)c3ccccc3)o1)C(C)(C)CCC2(C)C [Compound 462] | 0
52 | Cc1cc2c(cc1Cc1ccc(C(=O)N(CCN3CCOCC3)Cc3ccccc3)o1)C(C)(C)CCC2(C)C [Compound 534] | 9
